Tests used:
[1] = system: mutant H; experiment: Antiviral spectrum, fold resistance towards mutant H; type: cell-based; settings: FR=IC50(mutant strain)/IC50(HIV-1 strain LAI)
Protocol: Because of the increasing emergence of drug resistant HIV strains, the present compounds were tested for their potency against clinically isolated HIV strains harboring several mutations. These mutations are associated with resistance to protease inhibitors and result in viruses that show various degrees of phenotypic cross-resistance to the currently commercially available drugs such as for instance saquinavir, ritonavir, nelfinavir, indinavir and amprenavir. The viral strains R13025, R13027, R13028, R13029, R13034, R13080, T13127 and R13363 contained mutations as indicated below in Table 3.

[2] = system: mock-infected MT4 cells; experiment: Toxicity on mock-infected MT4 cells (CC50)
Protocol: (§1) HIV- or mock-infected MT4 cells were incubated for five days in the presence of various concentrations of the inhibitor. […] Cell viability is measured by measuring the concentration of MTT, a yellow, water soluble tetrazolium dye that is converted to a purple, water insoluble formazan in the mitochondria of living cells only. Upon solubilization of the resulting formazan crystals with isopropanol, the absorbance of the solution is monitored at 540 nm. The values correlate directly to the number of living cells remaining in the culture at the completion of the five day incubation. The inhibitory activity of the compound was monitored on the virus-infected cells and was expressed as IC50 and IC90. These values represent the amount of the compound required to protect 50% and 90%, respectively, of the cells from the cytopathogenic effect of the virus. […] The selectivity index (SI) (ratio CC50/IC50) is an indication of the selectivity of the anti-HIV activity of the inhibitor. Wherever results are reported as e.g. pIC50 or pCC50 values, the result is expressed as the negative logarithm of the result expressed as IC50 or CC50 respectively.
(§2) As a measure of the broad spectrum activity of the present compounds, the fold resistance (FR), defined as FR=IC50(mutant strain)/IC50(HIV-1 strain LAI), was determined.

[3] = system: HIV-1 strain LAI; experiment: Cellular anti-HIV assay, MT4 cells, MTT readout, wild type HIV-1 strain LAI; type: cell-based; settings: for WT (pIC50 against wild type HIV-LAI strain): Table 4
Protocol: The compounds of the present invention were examined for anti-viral activity in a cellular assay. […] The cellular assay was performed according to the following procedure.

[4] = system: mutant E; type: cell-based; settings: FR=IC50(mutant strain)/IC50(HIV-1 strain LAI)
Protocol: as §1
(§3) Because of the increasing emergence of drug resistant HIV strains, the present compounds were tested for their potency against clinically isolated HIV strains harboring several mutations. […] The viral strains R13025, R13027, R13028, R13029, R13034, R13080, T13127 and R13363 contained mutations as indicated below in Table 3.
as §2

[5] = system: mutant A; type: cell-based; settings: FR=IC50(mutant strain)/IC50(HIV-1 strain LAI)
Protocol: as §1, §3, §2

[6] = pCC50 value as determined with mock transfected cells
[7] = Table 1, MT4 cells, five days, HIV-1 strain LAI
[8] = Table 2, MT4 cells, five days, HIV-1 strain LAI

| SMILES | FR towards mutant H [1] | Tox (pCC50) [2, 6] | pIC50 (LAI) [3, 7] | WT (pIC50 against wild type HIV-LAI strain) [3] | FR towards mutant E [4] | FR value towards mutant A [5] | Tox (pCC50) [2] | IC50 ([3]; Human immunodeficiency virus 1, 120 h, Table 1, MT4 cells, five days, HIV-1 strain LAI, read-out: pIC50 (LAI) (converted)) | pIC50 (LAI) [3, 8] |
| --- | --- | --- | --- | --- | --- | --- | --- | --- | --- |
| CC(C)CN(C[C@@H](O)[C@H](Cc1ccccc1)NC(=O)OC(C)(C)C)S(=O)(=O)c1ccc2ncn(CCc3ccccc3)c2c1 [Compound 43] | 28 | 4.99 | 6.4 | 6.4 | 12.6 | 22 |  |  |  |
| CC(C)CN(C[C@@H](O)[C@H](Cc1ccccc1)NC(=O)OC1COC2OCCC12)S(=O)(=O)c1ccc2nc(N)[nH]c2c1 (stereo partly drawn) [Compound 59] | 0.39 |  | 5.3 | 5.3 | 0.31 | 1.5 | <4 |  |  |
| CC(C)CN(C[C@@H](O)[C@H](Cc1ccccc1)NC(=O)O[C@H]1CCOC1)S(=O)(=O)c1ccc2ncn(CC(C)C)c2c1 [Compound 14] |  |  | 7.7 |  |  |  |  |  |  |
| COC(=O)Nc1nc2ccc(S(=O)(=O)N(CC(C)C)C[C@@H](O)[C@H](Cc3ccccc3)NC(=O)COc3c(C)cc(CN)cc3C)cc2[nH]1 [Compound 26] | 47 | 4.86 | 7.0 | 7.0 | 6.8 | 6.3 |  |  |  |
| CC(C)CN(C[C@@H](O)[C@H](Cc1ccccc1)NC(=O)OCc1cncs1)S(=O)(=O)c1ccc2ncn(C)c2c1 [Compound 33] | 234 |  | 7.0 | 7.7 | 19 | 60 | <4 |  |  |
| Cc1cccc(C)c1OCC(=O)N[C@@H](Cc1ccccc1)[C@H](O)CN(CC(C)C)S(=O)(=O)c1ccc2nc[nH]c2c1 [Compound 29] | 78 |  | 7.1 | 7.1 | 13 | 14 | 4.21 |  |  |
| CC(C)CN(C[C@@H](O)[C@H](Cc1ccccc1)NC(=O)O[C@H]1CCOC1)S(=O)(=O)c1ccc2nc[nH]c2c1 [Compound 42] | 52 |  | 7.1 | 7.1 | 8.7 |  | <4 |  |  |
| CC(C)CN(C[C@@H](O)[C@H](Cc1ccccc1)NC(=O)OCc1cncs1)S(=O)(=O)c1ccc2ncn(CCc3ccccc3)c2c1 [Compound 34] | 46 | <4 | 7.0 | 7.0 | 17 | 32 |  |  |  |
| Cc1c(N)cccc1C(=O)N[C@@H](Cc1ccccc1)[C@H](O)CN(CC(C)C)S(=O)(=O)c1ccc2nc[nH]c2c1 [Compound 46] |  | <4 | 6.4 | 6.4 |  |  |  |  |  |
| Cc1cccc(C)c1OCC(=O)N[C@@H](Cc1ccccc1)[C@H](O)CN(CC(C)C)S(=O)(=O)c1ccc2ncn(C)c2c1 [Compound 31] | 209 |  | 7.2 | 7.2 | 9.5 | 13 | 4.24 |  |  |
| CC(C)CN(C[C@@H](O)[C@H](Cc1ccccc1)NC(=O)O[C@H]1CO[C@H]2OCC[C@H]21)S(=O)(=O)c1ccc2nc(NCCN3CCCC3)n(CCc3ccccc3)c2c1 [Compound 40, [(1S,2R)-2-hydroxy-3-[[[[1-(phenethyl)-2-[2-(pyrrolidin-1-yl)ethylamino]]benzimidazol-6-yl]sulfonyl](2-methylpropyl)amino]-1-(phenylmethyl)propyl]carbamic acid, [(3R,3aS,6aR)-hexahydrofuro[2,3-b]furan-3-yl]ester] | 7.9 |  | 6.4 | 6.4 | 4.0 | 10 |  |  |  |
| CC(C)CN(C[C@@H](O)[C@H](Cc1ccccc1)NC(=O)O[C@H]1CO[C@H]2OCC[C@H]21)S(=O)(=O)c1ccc2ncn(CCN3CCCC3)c2c1 [Compound 20, [(1S,2R)-2-hydroxy-1-(phenyl-methyl)-3-[[[1-[2-(pyrrolidin-1-yl)ethyl]benzimidazol-6-yl]sulfonyl](2-methylpropyl)-amino]propyl]carbamic acid, [(3R,3aS,6aR)-hexahydrofuro[2,3-b]furan-3-yl]ester] |  |  |  |  |  |  |  | 39.8 nM |  |
| CC(C)CN(C[C@@H](O)[C@H](Cc1ccccc1)NC(=O)OCc1cncs1)S(=O)(=O)c1ccc2ncn(CC(C)C)c2c1 [Compound 32] | 41 |  | 7.4 | 7.4 | 13 | 18 | 4.2 |  |  |
| CC(C)CN(CC(O)C(Cc1ccccc1)NC(=O)OC1COC2OCCC12)S(=O)(=O)c1ccc2ncn(Cc3cncn3C)c2c1 (stereo not drawn) [Compound 51] | 2.1 |  | 6.2 | 6.2 | 0.89 | 2.8 |  |  |  |
| CC(C)CN(C[C@@H](O)[C@H](Cc1ccccc1)NC(=O)OC1COC2OCCC12)S(=O)(=O)c1ccc2nc[nH]c2c1 (stereo partly drawn) [Compound 50] | 2.8 |  | 6.9 | 6.9 | 0.83 | 1.4 | <4 |  |  |
| COC(=O)Nc1nc2ccc(S(=O)(=O)N(CC(C)C)CC(O)C(Cc3ccccc3)NC(=O)OC3COC4OCCC34)cc2[nH]1 (stereo not drawn) [Compound 10] |  |  | 8.0 |  |  |  |  |  |  |
| CC(C)CN(C[C@@H](O)[C@H](Cc1ccccc1)NC(=O)OC(C)(C)C)S(=O)(=O)c1ccc2nc(N)n(Cc3ccccc3)c2c1 [Compound 39] |  |  | 6.9 | 6.9 | 3.5 | 32 |  |  |  |
| CC(C)CN(CC(O)C(Cc1ccccc1)NC(=O)OC1COC2OCCC12)S(=O)(=O)c1ccc2c(c1)ncn2CCN(C)C (stereo not drawn) [Compound 60] |  |  |  |  |  |  |  |  | 6.5 |
| Cc1cc(N)cc(C)c1OCC(=O)N[C@@H](Cc1ccccc1)[C@H](O)CN(CC(C)C)S(=O)(=O)c1ccc2c(c1)ncn2CCN(C)C [Compound 62] |  |  |  |  |  |  |  |  | 5.7 |
| CC(C)CN(C[C@@H](O)[C@H](Cc1ccccc1)NC(=O)O[C@H]1CCOC1)S(=O)(=O)c1ccc2nc(N)[nH]c2c1 [Compound 53] |  |  | 6.0 | 6.0 |  |  | 4.05 |  |  |
| CC(C)CN(C[C@@H](O)[C@H](Cc1ccccc1)NC(=O)OCc1cncs1)S(=O)(=O)c1ccc2ncn(Cc3ccccc3)c2c1 [Compound 30] | 65 |  | 7.1 | 7.1 | 13 | 18 |  |  |  |
| CC(C)CN(CC(O)C(Cc1ccccc1)NC(=O)OC1COC2OCCC12)S(=O)(=O)c1ccc2ncn(Cc3ccncc3)c2c1 (stereo not drawn) [Compound 28] | 2.6 |  | 7.5 | 7.5 | 1.3 | 1.5 |  |  |  |
| Cc1cccc(C)c1OCC(=O)N[C@@H](Cc1ccccc1)[C@H](O)CN(CC(C)C)S(=O)(=O)c1ccc2ncn(CC(C)C)c2c1 [Compound 45] |  |  | 6.3 | 6.3 | 7.4 | 9.3 | <4 |  |  |
